Results reported in ChEMBL document CHEMBL4354780, “Targeting S. mutans biofilms: a perspective on preventing dental caries” (Medchemcomm, 2019).
Converted amounts (≈) assume the structure as drawn.

Key:
[1] = system: Streptococcus mutans; experiment: Antibiofilm activity against 24 hrs-old biofilm of Streptococcus mutans assessed as reduction in cell viability relative to control; format: functional
[2] = system: Streptococcus mutans; experiment: Antibiofilm activity against Streptococcus mutans assessed as inhibition of biofilm formation; format: functional, organism-based; settings: for IC50: Streptococcus mutans
[3] = system: Streptococcus mutans; experiment: Antibacterial activity against Streptococcus mutans; format: organism-based
[4] = system: Streptococcus mutans; experiment: Inhibition of Streptococcus mutans F-ATPase activity relative to control; settings: concentration not given here
[5] = system: Streptococcus mutans; experiment: Antibiofilm activity against 24 hrs-old biofilm of Streptococcus mutans assessed as reduction in cell viability at 5 ug/ml relative to control; format: functional
[6] = system: Streptococcus mutans; experiment: Antibiofilm activity against 24 hrs-old biofilm of Streptococcus mutans assessed as reduction in cell viability at 10 ug/ml relative to control; format: functional
[7] = system: Streptococcus mutans; experiment: Antibiofilm activity against Streptococcus mutans assessed as decrease in biofilm viability at 0.053 to 53 uM by LIVE/DEAD staining based assay relative to control; format: functional
[8] = Binding affinity to Streptococcus mutans GtfC
[9] = biological target: T1, Sortase A (Streptococcus mutans, UniProt Q8CM62); experiment: Binding affinity to Streptococcus mutans Sortase A
T1 sequence (Q8CM62 whole entry): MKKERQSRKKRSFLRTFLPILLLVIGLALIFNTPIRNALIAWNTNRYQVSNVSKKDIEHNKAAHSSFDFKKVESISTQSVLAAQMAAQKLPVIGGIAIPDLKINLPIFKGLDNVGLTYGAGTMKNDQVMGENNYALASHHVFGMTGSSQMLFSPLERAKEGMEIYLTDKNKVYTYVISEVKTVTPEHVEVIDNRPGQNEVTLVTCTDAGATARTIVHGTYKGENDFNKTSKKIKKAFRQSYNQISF

[10] = system: Streptococcus mutans; experiment: Antibiofilm activity against Streptococcus mutans assessed as inhibition of biofilm formation at 250 uM on saliva-coated glass slides relative to control; format: functional
[11] = Binding affinity to Streptococcus mutans GtfB
[12] = system: Streptococcus mutans; experiment: Antibiofilm activity against Streptococcus mutans assessed as reduction in biomass at 0.63 ug/ml relative to control; format: functional
[13] = Inhibition of Streptococcus mutans VicK autophosphorylation activity
[14] = Inhibition of Streptococcus mutans CiaH autophosphorylation activity
[15] = Inhibition of Streptococcus mutans LiaS autophosphorylation activity
[16] = system: Streptococcus mutans; experiment: Antibiofilm activity against Streptococcus mutans assessed as inhibition of biofilm formation by measuring drug level causing induction of micro-colony phenotype; format: functional
[17] = system: Streptococcus mutans; experiment: Antibiofilm activity against Streptococcus mutans assessed as reduction in cell viability at 50 ug/ml relative to control; format: functional
[18] = system: Streptococcus mutans; experiment: Antibiofilm activity against Streptococcus mutans assessed as inhibition of biofilm formation on using surface coated compound at 0.06 uM relative to control; format: functional
[19] = system: Streptococcus mutans; experiment: Antibiofilm activity against Streptococcus mutans assessed as inhibition of biofilm formation by measuring reduction in cell adherence at sub-MIC level relative to control; format: functional
[20] = system: Streptococcus mutans; experiment: Antibiofilm activity against Streptococcus mutans assessed as inhibition of biofilm formation at 12.5 ug/ml relative to control; format: functional
[21] = system: Streptococcus mutans; experiment: Antibiofilm activity against Streptococcus mutans assessed as inhibition of biofilm formation at 200 ug/ml after 4 hrs by crystal violet staining based assay relative to control; format: functional
[22] = system: Streptococcus mutans; experiment: Antibiofilm activity against Streptococcus mutans assessed as inhibition of biofilm formation at 200 ug/ml after 4 hrs by Congo red staining based assay relative to control; format: functional
[23] = system: Streptococcus mutans; experiment: Antibacterial activity against Streptococcus mutans assessed as inhibition of planktonic growth relative to control; format: organism-based
[24] = system: Streptococcus mutans; experiment: Antibiofilm activity against Streptococcus mutans assessed as inhibition of biofilm formation on hydroxyapatite surface at 5 ug/ml relative to control; format: functional

For `O=C1C=C(Br)/C(=C/Br)O1`, the “inhibition (INH)” value [1] was 60%.

`O=C(O[C@@H]1Cc2c(O)cc(O)cc2O[C@@H]1c1cc(O)c(O)c(O)c1)c1cc(O)c(O)c(O)c1` [EPIGALOCATECHIN GALLATE] gave an MBIC90 [2] of 15.6 µg/mL, an MIC [3] of 31.25 µg/mL and an inhibition [4] of 50%.

Work on `COc1ccc(CCNc2nc3ccccc3nc2NCCc2ccc(OC)cc2)cc1` yielded an inhibition at 5 µg/mL [5] of 46% and an inhibition at 10 µg/mL [6] of 79%.

With `CO[C@H](CC(=O)O)[C@@H](C)C(=O)[C@H](C)/C=C(\C)[C@H]1OC(=O)[C@H](O)[C@H](O)/C=C/[C@H](C)CCC[C@@H]1C` the “inhibition (INH)” value [7] was 55 - 65%.

`Oc1cc(O)cc(/C=C/c2ccc(O)c(O)c2)c1` [PICEATANNOL] showed a Kd [8] of 14.6 µM and an IC50 [2] of 52 µM.

For `O=C(/C=C/c1ccccc1)c1ccccc1` [CHALCONE], the IC50 [9] was 5 µM and the inhibition at 250 µM [10] was 90%.

In the case of `COc1cc(/C=C/C(=O)CC(=O)/C=C/c2ccc(O)c(OC)c2)ccc1O` [CURCUMIN], the IC50 [9] is reported as 10.2 µM and the MIC [3] is reported as 125 µM.

Compound `Oc1ccc(/C=C/c2cc(O)cc(O)c2)cc1` [RESVERATROL] has a Kd [11] of 144 µM and a Kd [8] of 510 µM.

For `CCC(C)C1(O)C(C)C(=O)c2c(c(OC)c3ccc(-c4ccc5c(Cl)c6c(c(O)c5c4O)C(=O)C(C)C(O)(C(C)C)C6/C(=C\C(=O)O)OC)c(O)c3c2O)C1/C(C)=C\C(=O)O` (stereo not given), the inhibition at 0.63 µg/mL [12] was 60%, the IC50 [13] was 2.53 µg/mL (≈ 2.94 µM) and the IC50 [14] was 4.29 µg/mL (≈ 4.98 µM). The IC50 [15] was 4.96 µg/mL (≈ 5.76 µM).

With `C=CCc1ccc(O)c(OC)c1` [EUGENOL] the INH [16] was 0.3125 µg/mL.

Compound `Cc1cccc(N/C=C2/C=C(c3ccc(Cl)cc3)OC2=O)n1` has an inhibition at 50 µg/mL [17] of 75%.

For `O=C1C=C/C(=C\Br)O1`, the inhibition at 0.06 µM [18] was 63%.

With `CCC[C@@H]1CCC[C@]2(CCC)C(=O)CCC[C@@H]12` the MBIC50 [2] was 39 µg/mL, the MIC [3] was 156.25 µg/mL and the “inhibition (INH)” value [19] was 50%.

Compound `NC(=O)c1ccccc1NC(=O)c1cc2cc([N+](=O)[O-])ccc2s1` has a Kd [11] of 3.7 µM, a Kd [8] of 0.0469 µM and an inhibition at 12.5 µg/mL [20] of 85%.

With `C[C@H]1/C=C/[C@H]2OC(C)(C)O[C@H]2C(=O)O[C@H](c2cccc(CCCCC(=O)O)c2)[C@@H](C)CCC1` the MBIC50 [2] was 63 µM.

In the case of `O=c1c(O)c(-c2ccc(O)cc2O)oc2cc(O)cc(O)c12` [MORIN], the IC50 [9] is reported as 27.2 µM.

For `CCCCCCCCCCCCCCCCCC(=O)Oc1cc(C(=O)O[C@@H]2Cc3c(O)cc(O)cc3O[C@@H]2c2cc(OC(=O)CCCCCCCCCCCCCCCCC)c(O)c(OC(=O)CCCCCCCCCCCCCCCCC)c2)cc(OC(=O)CCCCCCCCCCCCCCCCC)c1O`, the inhibition at 200 µg/mL [21] was 100% and the inhibition at 200 µg/mL [22] was 100%.

With `CCCCCCCCCCCCCCCc1c[nH]c(N)n1.Cl` the IC50 [2] was 0.94 µM and the “growth inhibition (GI)” value [23] was less than 13%.

`Cc1cc(O)c2c(c1)C(=O)c1cc(O)cc(O)c1C2=O` [EMODIN] gave an inhibition at 5 µg/mL [24] of 90%.
